Source: PubChem BioAssay (NCI)
Values joined by “and” are separate entries in the source; they are usually repeats but may differ in a detail not shown here. Equal values may be shown once.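 Five compound concentrations were applied to cells in 96-well plates for 48 hours; endpoints were derived by simple linear interpolation of the resulting dose-response curve. GI50 is the concentration that inhibits growth by half. TGI is the concentration that stops growth completely.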

Assays:
Test in all cases: NCI anticancer screen, dose series, 48 h
NCI/ADR-RES ovarian = tested on: NCI/ADR-RES ovarian
SK-OV-3 ovarian = tested on: SK-OV-3 ovarian
MOLT-4 leukemia = tested on: MOLT-4 leukemia
SK-MEL-28 melanoma = tested on: SK-MEL-28 melanoma
HCT-116 colon = tested on: HCT-116 colon
OVCAR-8 ovarian = tested on: OVCAR-8 ovarian
EKVX NSCLC = tested on: EKVX NSCLC
NCI-H522 lung = tested on: NCI-H522 lung
MDA-MB-435 = tested on: MDA-MB-435
BT-549 breast = tested on: BT-549 breast
HOP-92 NSCLC = tested on: HOP-92 NSCLC
MALME-3M melanoma = tested on: MALME-3M melanoma
UACC-62 melanoma = tested on: UACC-62 melanoma
RXF 393 renal = tested on: RXF 393 renal
NCI-H226 lung = tested on: NCI-H226 lung
HOP-62 NSCLC = tested on: HOP-62 NSCLC
SW-620 colon = tested on: SW-620 colon
K-562 leukemia = tested on: K-562 leukemia
T-47D breast = tested on: T-47D breast
CAKI-1 renal = tested on: CAKI-1 renal
MDA-MB-231 breast = tested on: MDA-MB-231 breast
OVCAR-4 ovarian = tested on: OVCAR-4 ovarian
OVCAR-5 ovarian = tested on: OVCAR-5 ovarian
HCC-2998 colon = tested on: HCC-2998 colon
SF-539 CNS = tested on: SF-539 CNS
TK-10 renal = tested on: TK-10 renal
COLO 205 colon = tested on: COLO 205 colon
SK-MEL-2 melanoma = tested on: SK-MEL-2 melanoma
A498 renal = tested on: A498 renal
SNB-19 CNS = tested on: SNB-19 CNS
LOX IMVI melanoma = tested on: LOX IMVI melanoma
NCI-H460 lung = tested on: NCI-H460 lung
SF-268 CNS = tested on: SF-268 CNS
IGROV1 ovarian = tested on: IGROV1 ovarian
UACC-257 melanoma = tested on: UACC-257 melanoma
SR leukemia = tested on: SR leukemia
MCF7 breast = tested on: MCF7 breast
U251 CNS = tested on: U251 CNS
DU-145 prostate = tested on: DU-145 prostate
HS 578T breast = tested on: HS 578T breast
A549 NSCLC = tested on: A549 NSCLC
SN12C renal = tested on: SN12C renal
HT29 colon = tested on: HT29 colon
HCT-15 colon = tested on: HCT-15 colon
UO-31 renal = tested on: UO-31 renal
SF-295 CNS = tested on: SF-295 CNS
OVCAR-3 ovarian = tested on: OVCAR-3 ovarian
NCI-H23 lung = tested on: NCI-H23 lung
SK-MEL-5 melanoma = tested on: SK-MEL-5 melanoma
ACHN renal = tested on: ACHN renal
CCRF-CEM leukemia = tested on: CCRF-CEM leukemia
SNB-75 CNS = tested on: SNB-75 CNS
RPMI-8226 leukemia = tested on: RPMI-8226 leukemia
PC-3 prostate = tested on: PC-3 prostate
KM12 colon = tested on: KM12 colon
MDA-N = tested on: MDA-N
HL-60(TB) leukemia = tested on: HL-60(TB) leukemia
786-0 renal = tested on: 786-0 renal
M14 melanoma = tested on: M14 melanoma
DMS 114 small cell lung = tested on: DMS 114 small cell lung

Compound: Cc1c(O)ccc2c(O)c(NC(=O)c3ccc4c(c3)CCC(C)(C)O4)c(=O)oc12
- TGI (NCI/ADR-RES ovarian): > 100 µM
- TGI (SK-OV-3 ovarian): > 100 µM
- TGI (MOLT-4 leukemia): > 100 µM
- TGI (SK-MEL-28 melanoma): > 100 µM
- TGI (HCT-116 colon): > 100 µM
- TGI (OVCAR-8 ovarian): > 100 µM
- TGI (EKVX NSCLC): > 100 µM
- TGI (NCI-H522 lung): > 100 µM
- TGI (MDA-MB-435): > 100 µM
- TGI (BT-549 breast): > 100 µM
- TGI (HOP-92 NSCLC): > 100 µM
- TGI (MALME-3M melanoma): > 100 µM
- TGI (UACC-62 melanoma): > 100 µM
- TGI (RXF 393 renal): > 100 µM
- TGI (NCI-H226 lung): > 100 µM
- TGI (HOP-62 NSCLC): > 100 µM
- TGI (SW-620 colon): > 100 µM
- TGI (K-562 leukemia): > 100 µM
- TGI (T-47D breast): > 100 µM
- TGI (CAKI-1 renal): > 100 µM
- TGI (MDA-MB-231 breast): > 100 µM
- TGI (OVCAR-4 ovarian): > 100 µM
- TGI (OVCAR-5 ovarian): > 100 µM
- TGI (HCC-2998 colon): > 100 µM
- TGI (SF-539 CNS): > 100 µM
- TGI (TK-10 renal): > 100 µM
- TGI (COLO 205 colon): > 100 µM
- TGI (SK-MEL-2 melanoma): > 100 µM
- TGI (A498 renal): > 100 µM
- TGI (SNB-19 CNS): > 100 µM
- TGI (LOX IMVI melanoma): > 100 µM
- TGI (NCI-H460 lung): > 100 µM
- TGI (SF-268 CNS): > 100 µM
- TGI (IGROV1 ovarian): > 100 µM
- TGI (UACC-257 melanoma): > 100 µM
- TGI (SR leukemia): > 100 µM
- TGI (MCF7 breast): > 100 µM
- TGI (U251 CNS): > 100 µM
- TGI (DU-145 prostate): > 100 µM
- TGI (HS 578T breast): > 100 µM
- TGI (A549 NSCLC): > 100 µM
- TGI (SN12C renal): > 100 µM
- TGI (HT29 colon): > 100 µM
- TGI (HCT-15 colon): > 100 µM
- TGI (UO-31 renal): > 100 µM
- TGI (SF-295 CNS): > 100 µM
- TGI (OVCAR-3 ovarian): > 100 µM
- TGI (NCI-H23 lung): > 100 µM
- TGI (SK-MEL-5 melanoma): > 100 µM
- TGI (ACHN renal): > 100 µM
- TGI (CCRF-CEM leukemia): > 100 µM
- TGI (SNB-75 CNS): > 100 µM
- TGI (RPMI-8226 leukemia): > 100 µM
- TGI (PC-3 prostate): > 100 µM
- TGI (KM12 colon): > 100 µM
- TGI (MDA-N): > 100 µM
- TGI (HL-60(TB) leukemia): > 100 µM
- TGI (786-0 renal): > 100 µM

Compound: O=C(/C=C/c1ccccc1)Oc1cccc(O)c1
- TGI (M14 melanoma): > 100 µM
- TGI (NCI/ADR-RES ovarian): > 100 µM
- TGI (SK-OV-3 ovarian): > 100 µM
- TGI (MOLT-4 leukemia): 21.8 µM
- TGI (SK-MEL-28 melanoma): 66.8 µM
- TGI (HCT-116 colon): 31.8 µM
- TGI (OVCAR-8 ovarian): > 100 µM
- TGI (NCI-H522 lung): 29.5 µM
- TGI (MDA-MB-435): > 100 µM
- TGI (BT-549 breast): > 100 µM
- TGI (HOP-92 NSCLC): > 100 µM
- TGI (MALME-3M melanoma): > 100 µM
- TGI (UACC-62 melanoma): > 100 µM
- TGI (RXF 393 renal): > 100 µM
- TGI (NCI-H226 lung): > 100 µM
- TGI (HOP-62 NSCLC): > 100 µM
- TGI (SW-620 colon): 37.9 µM
- TGI (T-47D breast): > 100 µM
- TGI (CAKI-1 renal): > 100 µM
- TGI (MDA-MB-231 breast): > 100 µM
- TGI (OVCAR-4 ovarian): > 100 µM
- TGI (OVCAR-5 ovarian): > 100 µM
- TGI (HCC-2998 colon): > 100 µM
- TGI (SF-539 CNS): > 100 µM
- TGI (TK-10 renal): > 100 µM
- TGI (COLO 205 colon): > 100 µM
- TGI (SK-MEL-2 melanoma): > 100 µM
- TGI (A498 renal): > 100 µM
- TGI (SNB-19 CNS): 76.1 µM
- TGI (LOX IMVI melanoma): > 100 µM
- TGI (NCI-H460 lung): > 100 µM
- TGI (SF-268 CNS): 62.6 µM
- TGI (IGROV1 ovarian): 43.6 µM
- TGI (UACC-257 melanoma): > 100 µM
- TGI (SR leukemia): 48.6 µM
- TGI (MCF7 breast): > 100 µM
- TGI (U251 CNS): > 100 µM
- TGI (DU-145 prostate): > 100 µM
- TGI (HS 578T breast): > 100 µM
- TGI (A549 NSCLC): > 100 µM
- TGI (SN12C renal): > 100 µM
- TGI (HT29 colon): > 100 µM
- TGI (HCT-15 colon): 34.7 µM
- TGI (UO-31 renal): > 100 µM
- TGI (SF-295 CNS): 34.3 µM
- TGI (OVCAR-3 ovarian): > 100 µM
- TGI (NCI-H23 lung): > 100 µM
- TGI (SK-MEL-5 melanoma): > 100 µM
- TGI (ACHN renal): > 100 µM
- TGI (SNB-75 CNS): > 100 µM
- TGI (RPMI-8226 leukemia): > 100 µM
- TGI (PC-3 prostate): > 100 µM
- TGI (KM12 colon): 46.3 µM
- TGI (MDA-N): > 100 µM
- TGI (HL-60(TB) leukemia): 41.2 µM
- TGI (786-0 renal): > 100 µM

Compound: CC(C)SC1CC2C(CC1(C)O)C2(C)C (stereo unspecified)
- GI50 (DMS 114 small cell lung): 89.7 µM and 18.7 µM
- TGI (DMS 114 small cell lung): > 100 µM
- GI50 (HL-60(TB) leukemia): 53.4 µM and 9.68 µM
- TGI (HL-60(TB) leukemia): > 100 µM

Compound: CC1=C(C)CC2C(=O)N(c3cc(C(C)(C)C)ccc3C(C)(C)C)C(=O)C2C1 (stereo unspecified)
- TGI (M14 melanoma): > 100 µM
- TGI (NCI/ADR-RES ovarian): > 100 µM
- TGI (SK-OV-3 ovarian): > 100 µM
- TGI (MOLT-4 leukemia): > 100 µM
- TGI (SK-MEL-28 melanoma): > 100 µM
- TGI (HCT-116 colon): > 100 µM
- TGI (OVCAR-8 ovarian): > 100 µM
- TGI (EKVX NSCLC): > 100 µM
- TGI (NCI-H522 lung): 23.9 µM
- TGI (MDA-MB-435): > 100 µM
- TGI (BT-549 breast): > 100 µM
- TGI (HOP-92 NSCLC): > 100 µM
- TGI (MALME-3M melanoma): 16.4 µM
- TGI (UACC-62 melanoma): 31.8 µM
- TGI (RXF 393 renal): 74.9 µM
- TGI (NCI-H226 lung): > 100 µM
- TGI (HOP-62 NSCLC): 82.3 µM
- TGI (SW-620 colon): > 100 µM
- TGI (K-562 leukemia): > 100 µM
- TGI (T-47D breast): > 100 µM
- TGI (CAKI-1 renal): > 100 µM
- TGI (MDA-MB-231 breast): > 100 µM
- TGI (OVCAR-4 ovarian): > 100 µM
- TGI (OVCAR-5 ovarian): > 100 µM
- TGI (HCC-2998 colon): > 100 µM
- TGI (SF-539 CNS): > 100 µM
- TGI (TK-10 renal): > 100 µM
- TGI (COLO 205 colon): > 100 µM
- TGI (SK-MEL-2 melanoma): > 100 µM
- TGI (SNB-19 CNS): > 100 µM
- TGI (LOX IMVI melanoma): > 100 µM
- TGI (NCI-H460 lung): > 100 µM
- TGI (SF-268 CNS): 24.6 µM
- TGI (IGROV1 ovarian): > 100 µM
- TGI (UACC-257 melanoma): > 100 µM
- TGI (SR leukemia): > 100 µM
- TGI (MCF7 breast): 17.2 µM
- TGI (U251 CNS): > 100 µM
- TGI (DU-145 prostate): > 100 µM
- TGI (HS 578T breast): 56.8 µM
- TGI (A549 NSCLC): > 100 µM
- TGI (SN12C renal): > 100 µM
- TGI (HT29 colon): > 100 µM
- TGI (HCT-15 colon): > 100 µM
- TGI (UO-31 renal): > 100 µM
- TGI (SF-295 CNS): > 100 µM
- TGI (OVCAR-3 ovarian): > 100 µM
- TGI (NCI-H23 lung): > 100 µM
- TGI (SK-MEL-5 melanoma): > 100 µM
- TGI (ACHN renal): 23.2 µM
- TGI (CCRF-CEM leukemia): > 100 µM
- TGI (SNB-75 CNS): 56.2 µM
- TGI (RPMI-8226 leukemia): > 100 µM
- TGI (PC-3 prostate): > 100 µM
- TGI (KM12 colon): > 100 µM
- TGI (MDA-N): > 100 µM
- TGI (HL-60(TB) leukemia): > 100 µM
- TGI (786-0 renal): > 100 µM
